This is an account of results in PubChem BioAssay (NCI).

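A five-concentration, 48-hour dose response in 96-well plates underlies each endpoint, interpolated linearly between surrounding concentrations. Here, GI50 denotes the concentration required for 50% inhibition of growth. TGI marks complete inhibition of growth.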

Test in all cases: growth of human tumour cells (NCI), 48 h
Experiment [1] deals with 786-0 renal.
For experiment [2], the system named is COLO 205 colon.
Experiment [3] has as its system HCC-2998 colon.
Experiment [4] concerns HS 578T breast.
Experiment [5] concerns MOLT-4 leukemia.
Experiment [6] relates to NCI-H226 lung.
For experiment [7], the system named is SF-268 CNS.
The test system of experiment [8] is SF-295 CNS.
For experiment [9], the system named is SN12C renal.
Experiment [10] has as its system UACC-257 melanoma.
For experiment [11], the system named is A498 renal.

With `COC(=O)C1Cc2c([nH]c3ccccc23)-c2[nH]c3ccccc3c2CC(NC(C)=O)C(=O)N2CCCC2C(=O)N1` (stereo unspecified), the TGI in experiment [1] was above 100 µM; in [2] it was above 100 µM; in [3], above 100 µM; in experiment [4] it was above 100 µM; in experiment [5], above 100 µM; in experiment [6] it was 18.3 µM. The TGI in experiment [7], in experiment [8], in experiment [9] and in experiment [10] was above 100 µM in each case.

With `CCOC(=O)[C@H](CO)Nc1c(O)c2c(c(O)c1Cl)C(=O)C=CC2=O`, the TGI in experiment [1], in [2], in experiment [3], in experiment [4], in [5] and in experiment [6] was above 10 µM throughout. Besides, the TGI in [7], in [8], in experiment [9] and in experiment [10] was above 10 µM each time.

On to `Cc1csc2c(=O)n(COCc3ccccc3)c(=O)[nH]c12`, for which the TGI in experiment [1], in experiment [11], in experiment [2], in [4], in [5] and in experiment [6] was above 100 µM each time. Besides, the TGI in experiment [7], in experiment [8], in [9] and in [10] was above 100 µM in each case.

For `Nc1nc(N)c2nc(CNc3ccc(C(=O)NC(CCNC(=O)c4ccccc4C(=O)O)C(=O)O)cc3)cnc2n1` (stereo unspecified), the TGI in experiment [1], in experiment [11], in [2], in experiment [4], in [5] and in [6] was above 100 µM each time. Also, the TGI in experiment [7], in experiment [8], in experiment [9] and in [10] was above 100 µM in each case. The GI50 in [4] was 0.49 µM; in experiment [5], 0.0453 µM; in experiment [7] it was 0.169 µM; in experiment [9], 0.102 µM.

For `CCOC(=O)C1=C(C)N(c2ccc(Cl)cc2)C2(O)C=CC(Nc3ccc(Cl)cc3)=C3C(=O)N(c4ccccc4)C(=O)C312` (stereo unspecified), the TGI in experiment [11] was 9.33 µM; in experiment [2] it was 7.2 µM; in experiment [4] it was above 100 µM; in experiment [5], above 100 µM; in [7] it was 20.1 µM; in [8], 13.8 µM. Besides, the figures for the TGI in experiment [9] and in experiment [10] were 13.4 µM and 39.2 µM, respectively.

On to `CN(C)CCCN=c1c2ccccc2n(C)c2[nH]c(=O)n(C)c(=O)c12`, for which the TGI in experiment [1] was above 64.8 µM; in experiment [11], 38 µM; in experiment [2], 11.9 µM; in experiment [4], 52.6 µM; in experiment [5], 12.1 µM; in experiment [6], 18.4 µM. Further, the TGI in [7] was above 46.6 µM; in experiment [8], 32.5 µM; in [9] it was above 51.6 µM; in experiment [10], 13.8 µM.

As to `CC(C)(/C=N/O)/[N+]([O-])=C/c1ccccc1`, the TGI in [1], in experiment [2], in [3], in [4], in experiment [5] and in experiment [6] was above 100 µM in each case. The TGI in experiment [7], in experiment [8], in experiment [9] and in experiment [10] was above 100 µM each time.

For the compound `CCOC(=O)C(NC(=O)c1ccccc1)(Nc1ccc(S(=O)(=O)Nc2ccc(OC)nn2)cc1)C(F)(F)F` (stereo unspecified), the TGI in [1], in experiment [2], in [3], in experiment [4], in [5] and in experiment [6] was above 100 µM in each case. For the same compound, the TGI in experiment [7], in experiment [8], in [9] and in experiment [10] was above 100 µM throughout.

On to `CCOP(=O)(OCC)C(C)(CC)/N=C(\N)NC#N` (stereo unspecified), for which the TGI in experiment [1], in experiment [2], in [3], in experiment [4], in [5] and in experiment [6] was above 100 µM each time. The TGI in experiment [7], in experiment [8], in [9] and in experiment [10] was above 100 µM throughout.

Consider `COc1c(C)c(C/C=C(\C)CCCCO)c(OC)c2ccccc12`, for which the TGI in experiment [1] is above 100 µM; in experiment [2] it was above 100 µM; in experiment [3], 62.5 µM; in experiment [4], above 100 µM; in experiment [5], 43.1 µM; in experiment [7], above 100 µM. Further, the TGI in experiment [8] was above 100 µM; in experiment [9], 52.9 µM; in experiment [10] it was above 100 µM.

For the compound `COc1ccc(C=NCCCN=Cc2ccc(OC)cc2O)c(O)c1`, the TGI was above 100 µM in [1]; above 100 µM in experiment [11]; 63.7 µM in experiment [4]; above 100 µM in experiment [5]; 59.3 µM in experiment [6]; 54.5 µM in [8]. The TGI was 90.6 µM in experiment [9] and above 100 µM in [10].

`COc1cc(O)c2c(=O)c(OC)c(-c3ccc(OC)c(OC)c3)oc2c1.[Sn]`: the TGI in experiment [1], in experiment [2], in experiment [3], in [4], in experiment [5] and in [6] was above 100 µM each time. Moreover, the TGI in experiment [7], in [8] and in experiment [9] was above 100 µM each time. Moreover, the GI50 in experiment [3] was above 100 µM; in [5], 80.1 µM; in [7], above 100 µM; in [8] it was 17.4 µM.

With `CC1(C)OC2[C@@H](CO[C@@]3([C@H]4OC(C)(C)O[C@@H]4CO)OC(C)(C)O[C@@H]23)O1` (stereo partly specified), the TGI in [1], in [2], in experiment [3], in [4], in [5] and in experiment [6] was above 100 µM in each case. Moreover, the TGI in experiment [7], in [8] and in experiment [9] was above 100 µM throughout.
